{"source": "ChEMBL document CHEMBL5108052", "about": "“Histone Deacetylase and Enhancer of Zeste Homologue 2 Dual Inhibitors Presenting a Synergistic Effect for the Treatment of Hematological Malignancies” (J Med Chem, 2022)", "key": {"L02": {"test_system": "L02", "assay": "Cytotoxicity against human L02 cells assessed as increase in combination index measured after 72 hrs by CCK-8 assay", "assay_type": "toxicity, cell-based", "settings": "l02, 72 h"}, "[1]": {"target": "T1, Protein deacetylase HDAC6 (Homo sapiens, UniProt Q9UBN7)", "T1 sequence (Q9UBN7 whole entry)": "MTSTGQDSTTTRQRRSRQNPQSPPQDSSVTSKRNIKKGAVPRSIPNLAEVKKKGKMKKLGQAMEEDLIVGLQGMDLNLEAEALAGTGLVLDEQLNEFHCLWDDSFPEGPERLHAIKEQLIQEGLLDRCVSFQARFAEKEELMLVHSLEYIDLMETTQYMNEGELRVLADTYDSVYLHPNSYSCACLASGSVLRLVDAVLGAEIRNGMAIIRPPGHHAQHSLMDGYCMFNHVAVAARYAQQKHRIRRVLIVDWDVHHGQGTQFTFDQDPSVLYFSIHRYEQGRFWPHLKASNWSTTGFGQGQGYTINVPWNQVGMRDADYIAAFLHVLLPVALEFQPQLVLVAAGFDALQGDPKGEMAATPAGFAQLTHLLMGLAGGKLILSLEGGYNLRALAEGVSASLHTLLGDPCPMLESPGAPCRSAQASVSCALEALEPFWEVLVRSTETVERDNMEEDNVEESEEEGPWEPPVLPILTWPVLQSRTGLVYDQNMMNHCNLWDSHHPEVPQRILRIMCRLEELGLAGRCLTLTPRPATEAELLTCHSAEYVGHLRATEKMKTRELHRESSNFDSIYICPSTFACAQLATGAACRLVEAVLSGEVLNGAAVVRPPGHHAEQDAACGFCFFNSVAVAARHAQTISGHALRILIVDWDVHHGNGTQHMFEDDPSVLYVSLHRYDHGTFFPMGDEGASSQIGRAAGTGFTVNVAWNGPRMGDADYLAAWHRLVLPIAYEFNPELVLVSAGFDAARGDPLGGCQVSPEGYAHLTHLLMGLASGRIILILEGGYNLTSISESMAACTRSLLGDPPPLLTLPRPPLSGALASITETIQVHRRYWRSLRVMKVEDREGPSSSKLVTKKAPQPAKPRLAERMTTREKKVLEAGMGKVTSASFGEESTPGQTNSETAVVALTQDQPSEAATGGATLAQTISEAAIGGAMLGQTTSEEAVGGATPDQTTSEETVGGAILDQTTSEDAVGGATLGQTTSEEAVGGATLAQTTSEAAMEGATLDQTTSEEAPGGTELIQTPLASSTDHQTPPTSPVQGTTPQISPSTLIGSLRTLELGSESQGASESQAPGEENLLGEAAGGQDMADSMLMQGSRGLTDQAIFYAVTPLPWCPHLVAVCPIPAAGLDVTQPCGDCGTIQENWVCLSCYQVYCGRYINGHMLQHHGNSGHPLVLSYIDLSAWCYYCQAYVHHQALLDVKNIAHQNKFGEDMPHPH", "assay": "Inhibition of full length recombinant N-terminal GST-tagged human HDAC6 (1 to 1215 residues) expressed in baculovirus infected insect cells incubated for 2 hrs by Multimode microplate reader analysis"}, "MV4-11 [2]": {"test_system": "MV4-11", "assay": "Induction of apoptosis in human MV4-11 cells assessed as early apoptotic cells at 0.2 uM measured after 48 hrs by Annexin V/7-AAD-dual staining based flow cytometric analysis (reference value: 2.2 %)", "assay_type": "functional"}, "MV4-11 [3]": {"test_system": "MV4-11", "assay": "Induction of mitochondrial membrane potential in human MV4-11 cells assessed as reduction in red fluorescence intensity at 0.4 uM measured after 48 hrs by JC1 staining-based flow cytometry analysis (reference value: 98.8%)", "assay_type": "functional", "set-up": "scale not given: the % may be the effect or the level left"}, "Histone deacetylase 11": {"target": "T2, Histone deacetylase 11 (Homo sapiens, UniProt Q96DB2)", "T2 sequence (Q96DB2 whole entry)": "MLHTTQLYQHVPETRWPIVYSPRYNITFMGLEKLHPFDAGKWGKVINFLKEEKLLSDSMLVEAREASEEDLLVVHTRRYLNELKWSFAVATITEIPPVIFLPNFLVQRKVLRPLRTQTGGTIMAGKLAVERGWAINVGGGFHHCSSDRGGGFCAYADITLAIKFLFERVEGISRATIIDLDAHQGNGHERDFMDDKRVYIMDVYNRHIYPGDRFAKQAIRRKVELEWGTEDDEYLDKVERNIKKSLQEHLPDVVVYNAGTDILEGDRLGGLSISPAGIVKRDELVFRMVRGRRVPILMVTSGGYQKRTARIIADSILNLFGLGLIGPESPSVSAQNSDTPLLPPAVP", "assay": "Inhibition of N-terminal Strep2-tagged recombinant His-tagged human HDAC11 (1 to 347 residues) using trifluoroacetyl lysine as substrate incubated for 2 hrs by Multimode microplate reader analysis"}, "MV4-11 [4]": {"test_system": "MV4-11", "assay": "Induction of mitochondrial membrane potential in human MV4-11 cells assessed as reduction in red fluorescence intensity at 0.2 uM measured after 48 hrs by JC1 staining-based flow cytometry analysis (reference value: 98.8%)", "assay_type": "functional", "set-up": "scale not given: the % may be the effect or the level left"}, "MV4-11 [5]": {"test_system": "MV4-11", "assay": "Induction of mitochondrial membrane potential in human MV4-11 cells assessed as reduction in red fluorescence intensity at 0.1 uM measured after 48 hrs by JC1 staining-based flow cytometry analysis (reference value: 98.8%)", "assay_type": "functional", "set-up": "scale not given: the % may be the effect or the level left"}, "Histone deacetylase 2": {"target": "Histone deacetylase 2 (Homo sapiens, UniProt Q92769)", "sequence (Q92769 whole entry, the tested form may be a part)": "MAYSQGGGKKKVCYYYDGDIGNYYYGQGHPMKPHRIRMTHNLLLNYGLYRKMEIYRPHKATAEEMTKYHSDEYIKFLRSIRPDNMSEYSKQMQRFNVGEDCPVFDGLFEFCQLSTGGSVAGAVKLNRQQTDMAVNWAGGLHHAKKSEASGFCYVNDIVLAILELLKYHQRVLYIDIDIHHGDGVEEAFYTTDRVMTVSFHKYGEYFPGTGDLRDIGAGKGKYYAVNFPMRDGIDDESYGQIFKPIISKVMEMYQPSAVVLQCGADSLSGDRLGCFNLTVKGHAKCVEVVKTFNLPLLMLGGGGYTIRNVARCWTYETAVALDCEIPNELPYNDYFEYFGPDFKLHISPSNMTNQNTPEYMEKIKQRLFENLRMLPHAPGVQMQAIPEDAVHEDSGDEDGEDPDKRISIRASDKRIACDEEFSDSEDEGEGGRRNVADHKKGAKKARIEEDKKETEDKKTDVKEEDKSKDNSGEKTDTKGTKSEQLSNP", "assay": "Inhibition of full length recombinant human C-terminal GST-fusion-tagged human HDAC2 (1 to 488 residues) expressed in insect cells using RHK-K(Ac)-AMC as substrate incubated for 2 hrs by Multimode microplate reader analysis"}, "MV4-11 [6]": {"test_system": "MV4-11", "assay": "Induction of apoptosis in human MV4-11 cells assessed as necrotic cells at 0.4 uM measured after 48 hrs by Annexin V/7-AAD-dual staining based flow cytometric analysis (reference value: 0.3 %)", "assay_type": "functional"}}, "note": "pIC50: −log10 of the molar value."}
{"smiles": "Cc1cc(C)c(CNC(=O)c2cc(-c3ccc(N4CCN(c5ncc(C(=O)NO)cn5)CC4)nc3)cc3c2cnn3C(C)C)c(=O)[nH]1", "values": [{"measurement": "Activity", "setting": "L02", "result": "Toxic"}, {"measurement": "pIC50", "setting": "[1]", "result": 6.15}, {"measurement": "Activity", "setting": "MV4-11 [2]", "result": 10.3, "unit": "%"}, {"measurement": "Activity", "setting": "MV4-11 [3]", "result": 72, "unit": "%"}, {"measurement": "pIC50", "setting": "Histone deacetylase 11", "result": 5.59}, {"measurement": "Activity", "setting": "MV4-11 [4]", "result": 84.3, "unit": "%"}, {"measurement": "Activity", "setting": "MV4-11 [5]", "result": 92.9, "unit": "%"}, {"measurement": "pIC50", "setting": "Histone deacetylase 2", "result": 6.11}, {"measurement": "Activity", "setting": "MV4-11 [6]", "result": 0.1, "unit": "%"}]}
